Like-named read-outs stand apart in the source and are kept apart here.
Tests used:
[1] = in the absence of S9; cited from earlier work
[2] = Intrinsic clearance in liver microsomes; format: in vitro ADME; settings: 37 °C, NADPH, 45 min, mean of 5
Experimental: The reaction is terminated by the addition of methanol. Following centrifugation, the supernatant is analyzed on the LC-MS/MS. […] The data is the mean on 5 separate experiments.
The ln peak area ratio (compound peak area/internal standard peak area) is plotted against time and the gradient of the line determined.
(see Supplementary data file for details).

[3] = Log D pH 7.4, octanol/buffer shake flask method
Experimental: Briefly, octanol (pre-saturated with buffer) is added to the test compound and sonicated. Buffer at pH 7.4 (presaturated with octanol) is then added to the octanol. […] The system is mixed to allow distribution of the compound between the two phases.
Log D = Log (Coct / Caq ). Where: Coct = Concentration in octanol sample (corrected for dilution) and Caq = Concentration in aqueous sample (corrected for dilution)

HEPG2 cells = experiment: High-content cell toxicity screen in HEPG2 cells; format: cell-based; settings: concentrations between 10 and 30 μM
Experimental: Effect on the cell or mitochondrial viability markers in HepG2 cells were tested for compounds up to 50 μM. HepG2 cells were plated on 96-well tissue culture treated black walled clear bottomed polystyrene plates at 0:3 _ 104 cells in 100_L per well. After 24 hr the cells were dosed with the test compound at a range of concentrations (see Assay Summary for details). At the end of the incubation period, the cells were loaded with the relevant dye/antibody for each cell health marker. The plates were then scanned using an automated fluorescent cellular imager, ArrayScanr VTI (Thermo Scientific Cellomics).

mouse RAR alpha receptor = target: T1, mouse RAR alpha receptor (Mus musculus, UniProt P11416); settings: relative to the amplitude of the normalizing ATRA output
T1 sequence (P11416 183-417 limits assumed): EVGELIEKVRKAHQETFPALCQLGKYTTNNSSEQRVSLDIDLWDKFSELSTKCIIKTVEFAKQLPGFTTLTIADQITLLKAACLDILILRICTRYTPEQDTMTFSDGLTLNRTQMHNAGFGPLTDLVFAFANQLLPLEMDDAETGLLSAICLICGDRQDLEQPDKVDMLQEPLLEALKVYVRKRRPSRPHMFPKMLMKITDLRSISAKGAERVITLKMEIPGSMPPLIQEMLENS

PK studies in rats = format: in vivo, Sprague-Dawley rats; settings: for rat pK Cl: iv 0.5 mg/kg; for rat pK Cl / bioavailability: n = 4; for bioavailability: male, Sprague-Dawley, rat, 10 mg/kg po vs 0.5 mg/kg iv, read-out: rat pK F%
Experimental: The Test Items were orally administered at a dose of 10 mg/kg and a dosing volume of 10 mL/kg. […] The Test Items were intravenously administered at a dose of 0.5 mg/kg and a dosing volume of 2 mL/kg. […] Whole blood concentrations of the Test Items were measured using LC-MS/MS and selected pharmacokinetic parameters calculated using Pharsight WinNonLin software. For furthers details see Supplementary data file.

Cyp 450 3A4 = target: T2, Cyp 450 3A4 (Homo sapiens, UniProt P08684); experiment: Cytochrome P450 inhibition in human liver microsomes; format: in vitro ADME; settings: at 25 μM
T2 construct: tissue Cyprotex (CRO); host or cells: human liver microsomes
T2 sequence (P08684 whole entry): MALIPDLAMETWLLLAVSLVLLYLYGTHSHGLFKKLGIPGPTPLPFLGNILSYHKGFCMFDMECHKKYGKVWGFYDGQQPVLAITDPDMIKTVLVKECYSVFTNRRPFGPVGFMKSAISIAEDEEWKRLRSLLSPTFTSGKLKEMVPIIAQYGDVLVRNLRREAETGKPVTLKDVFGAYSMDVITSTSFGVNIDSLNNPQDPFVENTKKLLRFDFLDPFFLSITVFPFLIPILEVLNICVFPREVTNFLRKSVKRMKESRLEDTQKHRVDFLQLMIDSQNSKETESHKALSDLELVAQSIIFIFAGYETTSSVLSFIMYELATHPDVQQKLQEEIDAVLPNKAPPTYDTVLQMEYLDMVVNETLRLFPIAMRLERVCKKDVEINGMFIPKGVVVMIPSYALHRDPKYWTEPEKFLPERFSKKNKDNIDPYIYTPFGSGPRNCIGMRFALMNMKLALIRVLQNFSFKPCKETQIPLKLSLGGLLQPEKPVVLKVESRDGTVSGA
Experimental: (§1) The five main cytochrome P450 isoforms (CYP1A, CYP2C9, CYP2C19, CYP2D6 and CYP3A4) were investigated in the P450 inhibition assay. […] At the end of the incubation, the formation of the metabolite was monitored by LC-MS/MS (or fluorescence in the case of CYP1A) at each of the test compound concentrations.

Cyp 450 2D6 = target: T3, Cyp 450 2D6 (Homo sapiens, UniProt P10635); experiment: as above; format: in vitro ADME; settings: at 25 μM
T3 construct: tissue Cyprotex (CRO); host or cells: human liver microsomes
T3 sequence (P10635 whole entry): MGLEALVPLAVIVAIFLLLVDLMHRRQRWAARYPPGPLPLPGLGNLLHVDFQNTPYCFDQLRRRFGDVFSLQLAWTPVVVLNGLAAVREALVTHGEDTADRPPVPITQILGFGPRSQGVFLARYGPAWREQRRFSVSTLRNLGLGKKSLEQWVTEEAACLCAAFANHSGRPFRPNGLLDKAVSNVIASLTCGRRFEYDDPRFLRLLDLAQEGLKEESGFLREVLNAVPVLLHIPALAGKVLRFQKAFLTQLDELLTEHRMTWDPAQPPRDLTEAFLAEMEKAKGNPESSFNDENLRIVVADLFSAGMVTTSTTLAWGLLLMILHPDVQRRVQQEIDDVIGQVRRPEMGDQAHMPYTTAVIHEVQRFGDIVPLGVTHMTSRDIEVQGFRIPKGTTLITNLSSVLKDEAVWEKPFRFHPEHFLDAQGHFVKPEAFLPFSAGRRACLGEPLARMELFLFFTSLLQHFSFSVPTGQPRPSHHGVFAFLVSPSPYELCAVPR
Experimental: as §1

Cyp 450 1A2 = target: T4, Cyp 450 1A2 (Homo sapiens, UniProt P05177); experiment: as above; format: in vitro ADME; settings: at 25 μM
T4 construct: tissue Cyprotex (CRO); host or cells: human liver microsomes
T4 sequence (P05177 1-516): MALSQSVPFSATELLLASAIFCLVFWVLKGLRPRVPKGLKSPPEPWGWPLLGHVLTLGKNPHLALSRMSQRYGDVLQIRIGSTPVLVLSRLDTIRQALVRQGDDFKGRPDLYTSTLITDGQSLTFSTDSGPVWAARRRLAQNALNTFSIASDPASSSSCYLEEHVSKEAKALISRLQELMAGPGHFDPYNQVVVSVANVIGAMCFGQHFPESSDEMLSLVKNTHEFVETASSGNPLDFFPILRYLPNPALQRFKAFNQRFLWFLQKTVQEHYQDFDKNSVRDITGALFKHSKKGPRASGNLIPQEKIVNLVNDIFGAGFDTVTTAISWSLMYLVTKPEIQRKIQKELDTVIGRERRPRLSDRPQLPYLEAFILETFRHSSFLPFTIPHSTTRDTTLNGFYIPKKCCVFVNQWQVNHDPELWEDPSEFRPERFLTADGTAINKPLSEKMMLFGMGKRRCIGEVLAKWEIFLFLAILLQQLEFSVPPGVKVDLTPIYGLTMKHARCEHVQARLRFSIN
Experimental: as §1

Cyp 450 2C19 = target: T5, Cyp 450 2C19 (Homo sapiens, UniProt P33261); experiment: as above; format: in vitro ADME; settings: at 25 μM
T5 construct: tissue Cyprotex (CRO); host or cells: human liver microsomes
T5 sequence (P33261 whole entry): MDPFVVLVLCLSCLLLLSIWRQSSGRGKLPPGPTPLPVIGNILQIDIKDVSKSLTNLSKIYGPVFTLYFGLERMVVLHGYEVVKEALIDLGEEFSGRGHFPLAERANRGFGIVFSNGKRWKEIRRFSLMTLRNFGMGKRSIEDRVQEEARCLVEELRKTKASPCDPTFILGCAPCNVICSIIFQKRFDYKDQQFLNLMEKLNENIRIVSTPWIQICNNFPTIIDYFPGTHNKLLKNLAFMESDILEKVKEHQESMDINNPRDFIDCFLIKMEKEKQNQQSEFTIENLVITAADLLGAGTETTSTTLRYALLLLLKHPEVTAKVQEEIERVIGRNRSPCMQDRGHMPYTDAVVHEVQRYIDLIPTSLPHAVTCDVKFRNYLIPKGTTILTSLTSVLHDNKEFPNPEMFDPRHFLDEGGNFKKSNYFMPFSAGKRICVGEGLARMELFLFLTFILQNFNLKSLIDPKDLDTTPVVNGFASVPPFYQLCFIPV
Experimental: as §1

Cyp 450 2C9 = target: T6, Cyp 450 2C9 (Homo sapiens, UniProt P11712); experiment: as above; format: in vitro ADME; settings: at 25 μM
T6 construct: tissue Cyprotex (CRO); host or cells: human liver microsomes
T6 sequence (P11712 whole entry): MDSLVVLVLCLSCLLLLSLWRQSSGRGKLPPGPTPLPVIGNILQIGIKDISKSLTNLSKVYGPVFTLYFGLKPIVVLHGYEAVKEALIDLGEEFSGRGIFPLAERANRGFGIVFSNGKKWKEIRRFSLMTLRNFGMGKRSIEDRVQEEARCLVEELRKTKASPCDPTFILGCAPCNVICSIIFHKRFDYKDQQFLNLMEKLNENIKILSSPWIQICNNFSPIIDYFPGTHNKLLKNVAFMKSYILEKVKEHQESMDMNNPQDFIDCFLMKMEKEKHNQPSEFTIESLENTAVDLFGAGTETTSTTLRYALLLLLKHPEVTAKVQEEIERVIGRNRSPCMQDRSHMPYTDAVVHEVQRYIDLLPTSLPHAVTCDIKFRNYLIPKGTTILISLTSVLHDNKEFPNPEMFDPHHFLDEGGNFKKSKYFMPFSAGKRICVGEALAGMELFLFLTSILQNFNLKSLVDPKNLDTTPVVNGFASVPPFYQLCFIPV
Experimental: as §1

[4] = liver microsomes, human microsomes
[5] = liver microsomes, mouse microsomes

CC1(C)CCC(C)(C)c2cc(C(=O)Nc3ccc(C(=O)O)cc3)ccc21 [Compound 2]
mutagenicity in vitro [1]: mutagen | microsomal CLint [2, 4]: 15.6 µL/min/mg | logD [3]: 2.8 | cell membrane permeability (HEPG2 cells): significant increase | mitochondrial membrane potential (HEPG2 cells): significant decrease

CCOc1c(OC(C)C)cc(C(=O)Nc2ccc(C(=O)O)cc2)cc1OC(C)C [Compound 31, 4-(4-Ethoxy-3,5-diisopropoxybenzamido)benzoic acid]
RARα agonist type (partial / full agonist) (mouse RAR alpha receptor): partial RARα agonist | microsomal CLint ([2]; human microsomes): 4 µL/min/mg | microsomal CLint ([2]; mouse microsomes): 8 µL/min/mg | logD [3]: 1.6 | rat pK Cl (PK studies in rats): 1 mL/kg/min | bioavailability (PK studies in rats; in vivo): 81%

CCOc1c(Cl)cc(C(=O)Nc2ccc(C(=O)O)cc2)cc1Cl [Compound 5, 4-(3,5-dichloro-4-ethoxybenzamido)benzoic acid]
microsomal CLint [2, 4]: 18 µL/min/mg | microsomal CLint [2, 5]: 127 µL/min/mg | logD [3]: 1.7 | Cyp 3A4 liability (Cyp 450 3A4): inactive | Cyp 2D6 liability (Cyp 450 2D6): inactive | Cyp1A liability (Cyp 450 1A2): inactive | Cyp 2C19 liability (Cyp 450 2C19): inactive | Cyp 2C9 liability (Cyp 450 2C9): inactive

CC(C)Oc1cc(C(=O)Nc2ccc(C(=O)O)cc2)cc(Cl)c1OC(C)C [Compound 39, 4-(3-chloro-4,5-diisopropoxybenzamido)benzoic acid]
RARα agonist type (partial / full agonist) (mouse RAR alpha receptor): full agonist | microsomal CLint [2, 5]: 31 µL/min/mg | logD [3]: 2.6 | rat pK AUC po (PK studies in rats; 10 mg/kg po, 8% Ethanol/92% PEG-400, n = 4): 43,569 ng·min mL^−1 | rat pK Cl (PK studies in rats): 10 mL/kg/min | bioavailability (PK studies in rats; whole blood): 39%

From publication PMC5823845 (Bioorganic & Medicinal Chemistry, 2018)
